Measured values taken from patent US6706664B1, “Benzoxazole compounds, process for the preparation thereof and herbicides” (UBE Industries, Ltd., priority 1999, dated 2004).

How the values were obtained:
Parameters in all cases: key: 0: normal development; 1: Less damaged; 2: Slightly damaged; 3: Moderately damaged; 4: Severely damaged; 5: All killed
Large crabgrass [1] = test: Foliar spread test for upland field; assay type: in vivo, Digitaria adscendens; details: foliar spray 500 ppm, 3 weeks, rank vs non-treated
Text: (§1) (0: normal development, 1: Less damaged, 2: Slightly damaged, 3: Moderately damaged, 4: Severely damaged, 5: All killed).
(§2) Wagner pots, each having an area of 1/5000 are, were packed with volcanic ash soil and then each seed of corn, soybean, cotton, wheat, solgum, sugar beat, Large crabgrass, barnyardgrass, green foxtail, blackgrass, annual bluegrass, common lambsquartes, livid amaranth, velvetleaf and morning glory was planted, covered with soil and grown in a glass house at an average temperature of […] for about 2 weeks.
(§3) Each wettable powder of the desired compounds (I) shown in Table 1 prepared in accordance with Example 2 was diluted to 500 ppm with water containing a surfactant (0.5%) and then uniformly sprayed on the above respective plants.
(§4) After these plants were controlled in a glass house at an average temperature of 25° C. for 3 weeks, the herbicidal effects thereof were investigated.
(§5) The herbicidal effects were evaluated according to the evaluation method described in the above (1).

common lambsquartes [2] = test: Foliar spread test for upland field; assay type: in vivo, Chenopodium album; details: foliar spray 500 ppm, 3 weeks, rank vs non-treated
Method in brief: (§6)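 Post-emergence foliar spray, 500 ppm (wettable powder in water + 0.5% surfactant), on ~2-week-old plants grown in volcanic ash soil; glasshouse, avg 25° C, 3 wk; visual damage score 0–5.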

annual bluegrass [3] = test: Soil treatment test for upland field; assay type: in vivo, Poa annua; details: 500 g/ha, glass house 25° C., 3 weeks
Method in brief: (§7)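 Pre-emergence: seeds sown in Ube alluvial soil in pots, then soil surface sprayed with wettable-powder formulation diluted in water with 0.05% surfactant at 500 g/ha. Plants kept in glasshouse at average 25° C for 3 weeks; injury scored 0 (normal) to 5 (all killed).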

green foxtail [4] = test: Soil treatment test for upland field; assay type: in vivo, Setaria viridis; details: 500 g/ha, glass house 25° C., 3 weeks
Method in brief: as §7

annual bluegrass [5] = test: Foliar spread test for upland field; assay type: in vivo, Poa annua; details: foliar spray 500 ppm, 3 weeks, rank vs non-treated
Text: as §1, §2, §3, §4, §5

Large crabgrass [6] = test: Soil treatment test for upland field; assay type: in vivo, Digitaria adscendens; details: 500 g/ha, glass house 25° C., 3 weeks
Method in brief: as §7

cotton [7] = test: Foliar spread test for upland field; assay type: in vivo; details: foliar spray 500 ppm, 3 weeks, rank vs non-treated
Method in brief: as §6

soybean [8] = test: Foliar spread test for upland field; assay type: in vivo; details: foliar spray 500 ppm, 3 weeks, rank vs non-treated
Method in brief: as §6

wheat [9] = test: Foliar spread test for upland field; assay type: in vivo; details: foliar spray 500 ppm, 3 weeks, rank vs non-treated
Method in brief: as §6

solgum [10] = test: Foliar spread test for upland field; assay type: in vivo; details: foliar spray 500 ppm, 3 weeks, rank vs non-treated
Method in brief: as §6

corn [11] = test: Foliar spread test for upland field; assay type: in vivo; details: foliar spray 500 ppm, 3 weeks, rank vs non-treated
Method in brief: as §6

sugar beat [12] = test: Foliar spread test for upland field; assay type: in vivo; details: foliar spray 500 ppm, 3 weeks, rank vs non-treated
Method in brief: as §6

blackgrass [13] = test: Foliar spread test for upland field; assay type: in vivo, Alopecurus aegualis; details: foliar spray 500 ppm, 3 weeks, rank vs non-treated
Text: as §1, §2, §3, §4, §5

livid amaranth [14] = test: Foliar spread test for upland field; assay type: in vivo, Amaranthus lividus; details: foliar spray 500 ppm, 3 weeks, rank vs non-treated
Method in brief: as §6

velvetleaf [15] = test: Foliar spread test for upland field; assay type: in vivo, Abutilon theophrasti; details: foliar spray 500 ppm, 3 weeks, rank vs non-treated
Method in brief: as §6

morning glory = test: Foliar spread test for upland field; assay type: in vivo, Ipomoea spps.; details: foliar spray 500 ppm, 3 weeks, rank vs non-treated
Text: as §1, §2, §3, §4, §5

common lambsquartes [16] = test: Soil treatment test for upland field; assay type: in vivo, Chenopodium album; details: 500 g/ha, glass house 25° C., 3 weeks
Method in brief: as §7

barnyardgrass [17] = test: Soil treatment test for upland field; assay type: in vivo, Echinochloa crusgalli; details: 500 g/ha, glass house 25° C., 3 weeks
Method in brief: as §7

green foxtail [18] = test: Foliar spread test for upland field; assay type: in vivo, Setaria viridis; details: foliar spray 500 ppm, 3 weeks, rank vs non-treated
Text: as §1, §2, §3, §4, §5

soybean [19] = test: Soil treatment test for upland field; assay type: in vivo; details: 500 g/ha, glass house 25° C., 3 weeks
Method in brief: as §7

wheat [20] = test: Soil treatment test for upland field; assay type: in vivo; details: 500 g/ha, glass house 25° C., 3 weeks
Method in brief: as §7

solgum [21] = test: Soil treatment test for upland field; assay type: in vivo; details: 500 g/ha, glass house 25° C., 3 weeks
Method in brief: as §7

corn [22] = test: Soil treatment test for upland field; assay type: in vivo; details: 500 g/ha, glass house 25° C., 3 weeks
Method in brief: as §7

sugar beat [23] = test: Soil treatment test for upland field; assay type: in vivo; details: 500 g/ha, glass house 25° C., 3 weeks
Method in brief: as §7

livid amaranth [24] = test: Soil treatment test for upland field; assay type: in vivo, Amaranthus lividus; details: 500 g/ha, glass house 25° C., 3 weeks
Method in brief: as §7

barnyardgrass [25] = test: Foliar spread test for upland field; assay type: in vivo, Echinochloa crusgalli; details: foliar spray 500 ppm, 3 weeks, rank vs non-treated
Text: as §1, §2, §3, §4, §5

velvetleaf [26] = test: Soil treatment test for upland field; assay type: in vivo, Abutilon theophrasti; details: 500 g/ha, glass house 25° C., 3 weeks
Method in brief: as §7

blackgrass [27] = test: Soil treatment test for upland field; assay type: in vivo, Alopecurus aegualis; details: 500 g/ha, glass house 25° C., 3 weeks
Method in brief: as §7

cotton [28] = test: Soil treatment test for upland field; assay type: in vivo; details: 500 g/ha, glass house 25° C., 3 weeks
Method in brief: as §7

CC(Oc1cccc(C(F)(F)F)c1)c1nc2ccc(C(F)(F)F)cc2o1 (stereo not drawn) [Compound 86]
4: Effects Green foxtail (green foxtail [4])
5: Effects Large crabgrass (Large crabgrass [6]) | Effects Livid amaranth (livid amaranth [24])
3: Effects Livid amaranth (livid amaranth [14]) | Effects Morning glory (morning glory) | Effects Barnyardgrass (barnyardgrass [17])
0: Effects Solgum (solgum [10]) | Effects Soybean (soybean [19]) | Effects Wheat (wheat [20]) | Effects Solgum (solgum [21]) | Effects Corn (corn [22])
1: Effects Annual bluegrass (annual bluegrass [3]) | Effects Annual bluegrass (annual bluegrass [5]) | Effects Cotton (cotton [7]) | Effects Wheat (wheat [9]) | Effects Corn (corn [11]) | Effects Blackgrass (blackgrass [13]) | Effects Velvetleaf (velvetleaf [15]) | Effects Common lambsquarters (common lambsquartes [16])
2: Effects Large crabgrass (Large crabgrass [1]) | Effects Common lambsquarters (common lambsquartes [2]) | Effects Soybean (soybean [8]) | Effects Sugar beat (sugar beat [12]) | Effects Green foxtail (green foxtail [18]) | Effects Sugar beat (sugar beat [23])

CCC(Oc1cccc(C(F)(F)F)c1)c1nc2cc([N+](=O)[O-])ccc2o1 (stereo not drawn) [Compound 178]
4: Effects Common lambsquarters (common lambsquartes [2]) | Effects Livid amaranth (livid amaranth [14]) | Effects Common lambsquarters (common lambsquartes [16]) | Effects Barnyardgrass (barnyardgrass [17])
5: Effects Annual bluegrass (annual bluegrass [3]) | Effects Green foxtail (green foxtail [4]) | Effects Large crabgrass (Large crabgrass [6]) | Effects Livid amaranth (livid amaranth [24])
2: Effects Barnyardgrass (barnyardgrass [25]) | Effects Wheat (wheat [9]) | Effects Solgum (solgum [10]) | Effects Corn (corn [11]) | Effects Blackgrass (blackgrass [13]) | Effects Green foxtail (green foxtail [18])
1: Effects Velvetleaf (velvetleaf [26]) | Effects Sugar beat (sugar beat [23])
3: Effects Large crabgrass (Large crabgrass [1]) | Effects Annual bluegrass (annual bluegrass [5]) | Effects Cotton (cotton [7]) | Effects Soybean (soybean [8]) | Effects Sugar beat (sugar beat [12]) | Effects Velvetleaf (velvetleaf [15]) | Effects Blackgrass (blackgrass [27])
0: Effects Cotton (cotton [28]) | Effects Soybean (soybean [19]) | Effects Wheat (wheat [20]) | Effects Solgum (solgum [21]) | Effects Corn (corn [22])

CCC(Oc1ccc(Cl)c(C(F)(F)F)c1)c1nc2cc(Cl)ccc2o1 (stereo not drawn) [Compound 438]
5: Effects Sugar beat (sugar beat [12]) | Effects Livid amaranth (livid amaranth [14])
2: Effects Wheat (wheat [9]) | Effects Solgum (solgum [10]) | Effects Corn (corn [11]) | Effects Blackgrass (blackgrass [13])
4: Effects Soybean (soybean [8]) | Effects Morning glory (morning glory)
3: Effects Large crabgrass (Large crabgrass [1]) | Effects Common lambsquarters (common lambsquartes [2]) | Effects Annual bluegrass (annual bluegrass [5]) | Effects Cotton (cotton [7]) | Effects Velvetleaf (velvetleaf [15]) | Effects Green foxtail (green foxtail [18])
1: Effects Barnyardgrass (barnyardgrass [25])

CCC(Oc1cccc(S(C)(=O)=O)c1)c1nc2cc(S(C)(=O)=O)ccc2o1 (stereo not drawn) [Compound 513]
5: Effects Large crabgrass (Large crabgrass [1]) | Effects Common lambsquarters (common lambsquartes [2]) | Effects Annual bluegrass (annual bluegrass [3]) | Effects Green foxtail (green foxtail [4]) | Effects Annual bluegrass (annual bluegrass [5]) | Effects Large crabgrass (Large crabgrass [6]) | Effects Sugar beat (sugar beat [12]) | Effects Blackgrass (blackgrass [13]) | Effects Livid amaranth (livid amaranth [14]) | Effects Velvetleaf (velvetleaf [26]) | Effects Velvetleaf (velvetleaf [15]) | Effects Common lambsquarters (common lambsquartes [16]) | Effects Green foxtail (green foxtail [18]) | Effects Sugar beat (sugar beat [23]) | Effects Livid amaranth (livid amaranth [24])
2: Effects Cotton (cotton [28]) | Effects Soybean (soybean [19]) | Effects Wheat (wheat [20]) | Effects Solgum (solgum [21])
4: Effects Barnyardgrass (barnyardgrass [17])
3: Effects Barnyardgrass (barnyardgrass [25]) | Effects Solgum (solgum [10]) | Effects Morning glory (morning glory) | Effects Blackgrass (blackgrass [27])

CCC(Oc1ccc(F)c(C(F)(F)F)c1)c1nc2cc(NC(=O)C(F)(F)F)ccc2o1 (stereo not drawn) [Compound 518]
2: Effects Large crabgrass (Large crabgrass [1]) | Effects Common lambsquarters (common lambsquartes [2]) | Effects Blackgrass (blackgrass [13]) | Effects Livid amaranth (livid amaranth [14])
0: Effects Cotton (cotton [7]) | Effects Soybean (soybean [8]) | Effects Wheat (wheat [9]) | Effects Solgum (solgum [10]) | Effects Corn (corn [11])
3: Effects Velvetleaf (velvetleaf [15])
5: Effects Sugar beat (sugar beat [12]) | Effects Green foxtail (green foxtail [18])

CCC(Oc1ccc(Cl)c(C(F)(F)F)c1)c1nc2cc(C#N)c(Cl)cc2o1 (stereo not drawn) [Compound 534]
3: Effects Blackgrass (blackgrass [13])
2: Effects Large crabgrass (Large crabgrass [1]) | Effects Barnyardgrass (barnyardgrass [25]) | Effects Wheat (wheat [9]) | Effects Solgum (solgum [10]) | Effects Corn (corn [11]) | Effects Soybean (soybean [19]) | Effects Corn (corn [22])
5: Effects Annual bluegrass (annual bluegrass [3]) | Effects Green foxtail (green foxtail [4]) | Effects Large crabgrass (Large crabgrass [6]) | Effects Sugar beat (sugar beat [12]) | Effects Livid amaranth (livid amaranth [14]) | Effects Velvetleaf (velvetleaf [26]) | Effects Velvetleaf (velvetleaf [15]) | Effects Morning glory (morning glory) | Effects Common lambsquarters (common lambsquartes [16]) | Effects Sugar beat (sugar beat [23]) | Effects Livid amaranth (livid amaranth [24])
1: Effects Wheat (wheat [20]) | Effects Solgum (solgum [21])
4: Effects Common lambsquarters (common lambsquartes [2]) | Effects Annual bluegrass (annual bluegrass [5]) | Effects Barnyardgrass (barnyardgrass [17]) | Effects Blackgrass (blackgrass [27])
